In the NIST ThermoML archive (doi:10.1021/je020114l):
± gives the expanded uncertainty stated by the source.

Conditions: 101.33 kPa, Liquid, Capillary tube (Ostwald / Ubbelohde) method

| SMILES | viscosity (298.15 K) [mPa·s] | viscosity (313.15 K) [mPa·s] |
| --- | --- | --- |
| CCC(C)O (stereo unspecified) [butan-2-ol] | 3.08 ± 0.027 | 1.794 ± 0.016 |
| CCCCCC [hexane] | 0.2944 ± 0.0034 | 0.2537 ± 0.0031 |
| CCCCCl [1-chlorobutane] | 0.4273 ± 0.0045 | 0.3645 ± 0.004 |
